The results in this text go back to PMC9627161 (Frontiers in Pharmacology, 2022).

One test has as its target RBD (Severe acute respiratory syndrome coronavirus 2, UniProt P0DTC2). Kind of test: MST binding to RBD protein. To be noted: mean ± SD (n = 3). The arrangement: species or system SARS-CoV-2. The protocol:
To detect the interaction between the peptides and RBD/Mpro, the MST experiments were performed using the Monolith NT.115 instrument. RBD and Mpro proteins were labeled with the Lys labeling kit, respectively. In the assay, the final concentration of the labeled protein was 50 nM, and the peptides were gradient-diluted in 1:1 dilution and starting from 12.5 μM. After brief incubation in MST buffer, the samples were loaded into MST-standard glass capillaries. All the measurements were performed in triplicate using automatically assigned 50% MST power and 20% LED power.

The next test concerns SARS-CoV-2 pseudovirus. To be noted: 1 h, 5 μM.
A further test has as its target Mpro (Severe acute respiratory syndrome coronavirus 2, UniProt P0DTD1). Kind of test: MST binding to Mpro protein. The arrangement: species or system SARS-CoV-2. To be noted: mean ± SD (n = 3).

Peptide text beside a SMILES is read from it.

As to `CC(=O)N[C@@H](CO)C(=O)N[C@H](C(=O)N[C@@H](CO)C(=O)N[C@@H](C)C(=O)N[C@H](C(=O)N[C@@H](CC(C)C)C(=O)N[C@@H](CCC(N)=O)C(=O)N[C@@H](CO)C(=O)NCC(=O)N[C@@H](Cc1ccccc1)C(=O)N[C@@H](CCCNC(=N)N)C(=O)N[C@@H](CCCCN)C(=O)N[C@@H](Cc1ccccc1)C(N)=O)C(C)C)[C@@H](C)O` [Peptide-21], the figures for the “RBD, Kd” value at RBD and at RBD (listed as peptide-21) were “no binding” and “no binding affinity”, respectively. In addition, in the test with SARS-CoV-2 pseudovirus, the “inhibition against pseudotyped SARS-CoV-2 virus” value was < 20%.

As for `CC[C@H](C)[C@H](N)C(=O)N[C@@H](CCC(=O)O)C(=O)N[C@@H](CCC(=O)O)C(=O)N[C@@H](CCC(N)=O)C(=O)N[C@@H](C)C(=O)N[C@@H](CCCCN)C(=O)N[C@H](C(=O)N[C@@H](Cc1ccccc1)C(=O)N[C@@H](CC(C)C)C(=O)N[C@@H](CC(=O)O)C(=O)N[C@@H](CCCCN)C(=O)N[C@@H](Cc1ccccc1)C(=O)N[C@@H](CC(N)=O)C(=O)N[C@@H](Cc1c[nH]cn1)C(=O)N[C@@H](CCC(=O)O)C(=O)N[C@@H](CCCCN)C(=O)N[C@@H](CCC(=O)O)C(=O)N[C@@H](CC(=O)O)C(=O)N[C@@H](CC(C)C)C(=O)N[C@@H](CCC(=O)O)C(=O)N[C@@H](Cc1ccc(O)cc1)C(=O)N[C@@H](CCC(N)=O)C(=O)N[C@@H](CO)C(=O)N[C@@H](CO)C(=O)N[C@@H](CC(C)C)C(=O)N[C@@H](C)C(=O)N[C@@H](CO)C(=O)N[C@@H](Cc1c[nH]c2ccccc12)C(=O)N[C@@H](CC(N)=O)C(=O)N[C@@H](Cc1ccc(O)cc1)C(=O)N[C@@H](CC(N)=O)C(=O)N[C@H](C(=O)N[C@@H](CC(N)=O)C(=O)N[C@H](C(=O)N[C@H](C(=O)O)[C@@H](C)O)[C@@H](C)CC)[C@@H](C)O)[C@@H](C)O` [Peptide-5] (H-IEEQAKTFLDKFNHEKEDLEYQSSLASWNYNTNIT-OH; N-terminus and C-terminus assumed), the “Mpro, Kd” value on Mpro is “no binding”; at Mpro (listed as peptide-5), “no binding affinity”. Besides, in the test with SARS-CoV-2 pseudovirus, the “inhibition against pseudotyped SARS-CoV-2 virus” value is listed as “about 40%”.
